Test results reported in PMC5768801, “The PII signaling protein from red algae represents an evolutionary link between cyanobacterial and Chloroplastida PII proteins” (Scientific Reports, 2018).
“And” between values parts separate entries of the source, which are not always exact repeats. Identical values can stand only once. “Also recorded” adds a separate entry of the source. Like-named read-outs stand apart in the source and are kept apart here.

How the values were obtained:
PpPII = PpPII (Porphyra purpurea, UniProt P51254); experiment: ITC binding of small effector molecules to red algal PpPII
Procedure: (§1) To gain additional insights into the ligand binding properties of PpPII in comparison to cyanobacterial and chloroplastid PII proteins, isothermal titration calorimetry (ITC) experiments were performed using highly purified Strep-tagged or His-tagged recombinant PpPII, SyPII, CrPII, and PhyscoPII proteins (Supplementary Fig. S1) with different protein/ligand/ concentrations to determine the best fitting conditions of the binding model. The titration experiments were repeated with different protein preparations to confirm the reproducibility of the results. The raw isothermal data were fitted into one-binding site as well as three-sequential binding sites to define the best fitting model. Fitting using a one binding site model states an average Kd value for all available binding sites and the mean of the stoichiometry of bound ligands.
(§2) The ITC experiments were done using a VP-ITC microcalorimeter (MicroCal, LCC). All details for determination of binding constants for small effector molecules using ITC are fully described in the supplementary information. Heat isotherms of the dilution of the ligand in the cell buffer were collected in a blank run for each experiment in the absence of protein. The binding isotherms were calculated from received data and fitted to one-site and three-sequential binding sites models using the MicroCal ORIGIN software (Northampton) as described. All titrations were performed in duplicates with different purification batches of recombinant PII proteins. The association binding constant (Ka) was generated from the software by de-convolution and curve fitting. For calculation of dissociation constant (Kd), the Ka value was inversed.
(§3) Supplementary Information […]
(§4) Determination of Binding Constants for Small Effector Molecules using Isothermal […]
(§5) The binding of the small effector molecules to the recombinant PII proteins was tested using isothermal titration calarmity (ITC); VP-ITC microcalorimeter (MicroCal). All titrations were performed on 20°C using […] injection syringe with injection 6 µl or 10 µl of the tested ligands for 45 or 29 times, respectively into the cell (1.4 ml) with continuous stirring at 155 rpm. All tested ligands were high grade, prepared freshly in the same buffer of the protein and purchased from Sigma-Aldrich. Heat isotherms for the dilution of the ligand in the cell buffer were collected in a blank run in the absence of protein. The received calorimetric data were analyzed using MicroCal Origin software and fitted into one-site and three-sequential binding sites models, as indicated by the manufacture for calculation of binding isotherms9. For data reproducibility, the titrations were performed in duplicates with different purification batches of recombinant PII proteins. The association binding constant (Ka) was generated from the software by de-convolution and curve fitting. For calculation of dissociation constant (Kd), the Ka value was inversed.
For determination the binding isotherms of red algal PpPII protein, a buffer system composed of […]
used. For determination ATP and ADP binding isotherms upon the binding to PpPII protein, His- […]
against 2 mM ATP or 2 mM ADP. For determination of ATP and ADP binding isotherms in […]
concentration) was titrated against 0.5 mM of ATP or 1 mM ADP, respectively. However, for […]
of 1 mM of ATP or 1 mM ADP. […]

SyPII [1] = target: T1, SyPII (Synechococcus elongatus, UniProt P0A3F4); conditions: cited from earlier work
T1 construct: Strep-tag; made in house

CrPII = experiment: ITC binding of small effector molecules to green algal CrPII; design: species or system Chlamydomonas reinhardtii
Procedure: as §1, §2, §3, §4
as §5, with “inversed. […]” for “inversed.”

SyPII [2] = target: T1, SyPII; experiment: ITC binding of small effector molecules to cyanobacterial SyPII; design: species or system Synechococcus elongatus PCC 7942
Procedure: as §1, §2, §3, §4
as §5, with “inversed. […]” for “inversed.”
For determination the binding isotherms of cyanobacterial SyPII protein, a strep-tagged recombinant protein (20 µM trimeric concentration) was overexpressed and used as described previously9, 15, in a buffer composed of 10 mM Hepes-NaOH, 50 mM KCl, 50 mM NaCl, and 1

PpPII, sequence (P51254 whole entry): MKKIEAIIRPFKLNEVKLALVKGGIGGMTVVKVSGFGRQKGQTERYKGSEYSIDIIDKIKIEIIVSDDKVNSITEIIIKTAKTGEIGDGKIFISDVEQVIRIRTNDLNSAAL
T1 sequence (P0A3F4 whole entry): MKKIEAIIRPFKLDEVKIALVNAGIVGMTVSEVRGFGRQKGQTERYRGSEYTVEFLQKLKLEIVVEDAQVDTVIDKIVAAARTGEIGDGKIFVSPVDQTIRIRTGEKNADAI

SMILES: Nc1ncnc2c1ncn2[C@@H]1O[C@H](COP(=O)(O)OP(=O)(O)O)[C@@H](O)[C@H]1O [ADP]
- N, number of calculated binding sites (one-site binding model) (PpPII; in presence 2-OG (1 mM)): 2.7
- Kd (PpPII; in presence 2-OG (1 mM), read-out: Average Kd (one-site binding model)): 10.8 ± 2.8 µM
- Kd (PpPII; in presence 2-OG (1 mM), read-out: Kd1 (three-sites binding model)): 10.3 ± 10 µM
- Kd (PpPII; in presence 2-OG (1 mM), read-out: Kd2 (three-sites binding model)): 43.6 ± 4.7 µM
- Kd (PpPII; in presence 2-OG (1 mM), read-out: Kd3 (three-sites binding model)): 125.9 ± 0.9 µM
- N, number of calculated binding sites (one-site binding model) (PpPII; titrant alone, per PII trimer): 2.7
- Kd (PpPII; titrant alone, read-out: Average Kd (one-site binding model)): ~7.2 µM and 7.2 µM
- Kd (PpPII; titrant alone, read-out: Kd1 (three-sites binding model)): 3.4 ± 0.5 µM
- Kd (PpPII; titrant alone, read-out: Kd2 (three-sites binding model)): 15.2 ± 0.7 µM
- Kd (PpPII; titrant alone, read-out: Kd3 (three-sites binding model)): 132 ± 2.7 µM
- Kd (SyPII [1]; read-out: Kd1 (three-sites binding model), titrant alone, given in parentheses for comparison): 10.6 µM
- Kd (SyPII [1]; read-out: Kd2 (three-sites binding model), titrant alone, given in parentheses for comparison): 19.3 µM
- Kd (SyPII [1]; read-out: Kd3 (three-sites binding model), titrant alone, given in parentheses for comparison): 133 µM
- Average Kd (one-site binding model) (CrPII; in presence 2-OG (2 mM)): no ADP binding
- Kd1 (three-sites binding model) (CrPII; in presence 2-OG (2 mM)): No binding
- Kd2 (three-sites binding model) (CrPII; in presence 2-OG (2 mM)): No binding
- Kd3 (three-sites binding model) (CrPII; in presence 2-OG (2 mM)): No binding
- Average Kd (one-site binding model) (CrPII; titrant alone): unable to notice any binding; also recorded: No binding
- Kd1 (three-sites binding model) (CrPII; titrant alone): No binding
- Kd2 (three-sites binding model) (CrPII; titrant alone): No binding
- Kd3 (three-sites binding model) (CrPII; titrant alone): No binding
- ADP concentration at which the enthalpy reached a maximum (biphasic titration curve) (SyPII [2]; ADP titrated in the presence of 1 mM 2-OG): 80.0 ± 7.1 µM
- Kd (SyPII [2]; Average Kd (one-site binding model), in presence 2-OG (1 mM) and 150 µM ADP): 45.8 ± 44 µM
- Kd (SyPII [2]; Kd1 (three-sites binding model), in presence 2-OG (1 mM) and 150 µM ADP): 10.7 ± 1.9 µM
- Kd (SyPII [2]; Kd2 (three-sites binding model), in presence 2-OG (1 mM) and 150 µM ADP): 26.4 ± 4.2 µM
- Kd (SyPII [2]; Kd3 (three-sites binding model), in presence 2-OG (1 mM) and 150 µM ADP): 101 ± 103 µM
- N, number of calculated binding sites (one-site binding model) (SyPII [2]; in presence 2-OG (1 mM) and 150 µM ADP): 4.0
